Experimental data: a compilation of properties of binary mixtures (doi:10.1021/jp308139r)

Assay: xn = mol fraction of the nth substance listed
Details: 101 kPa

C[NH+](C)C.O=S(=O)([N-]S(=O)(=O)C(F)(F)F)C(F)(F)F + CC1COC(=O)O1
Details | electrical conductivity [S/m]
264.45 K, x2 = 0.701 | 0.519
273.15 K, x2 = 0.701 | 0.687
283.15 K, x2 = 0.701 | 1
293.15 K, x2 = 0.701 | 1.34
298.15 K, x1 = 0.0002 | 0.011
298.15 K, x1 = 0.0005 | 0.022
298.15 K, x1 = 0.002 | 0.066
298.15 K, x1 = 0.0055 | 0.155
298.15 K, x2 = 0.5091 | 1.41
298.15 K, x2 = 0.5632 | 1.5
298.15 K, x2 = 0.6802 | 1.66
298.15 K, x2 = 0.843 | 1.43
303.15 K, x2 = 0.701 | 1.74
313.15 K, x2 = 0.701 | 2.16
323.15 K, x2 = 0.701 | 2.61
333.15 K, x2 = 0.701 | 3.09
343.15 K, x2 = 0.701 | 3.59
353.15 K, x2 = 0.701 | 4.1

C[S+](C)C.O=S(=O)([N-]S(=O)(=O)C(F)(F)F)C(F)(F)F + CC1COC(=O)O1
Details | electrical conductivity [S/m]
265.55 K, x2 = 0.76 | 0.468
276.95 K, x2 = 0.76 | 0.708
294.65 K, x2 = 0.76 | 1.18
298.15 K, x1 = 0.0001 | 0.009
298.15 K, x1 = 0.0003 | 0.023
298.15 K, x1 = 0.0053 | 0.177
298.15 K, x2 = 0.5156 | 1.07
298.15 K, x2 = 0.565 | 1.21
298.15 K, x2 = 0.6897 | 1.37
298.15 K, x2 = 0.7404 | 1.39
298.15 K, x2 = 0.8098 | 1.34
298.15 K, x2 = 0.8571 | 1.25
298.15 K, x2 = 0.9218 | 0.964
298.15 K, x2 = 0.9792 | 0.39
303.15 K, x2 = 0.76 | 1.44
313.15 K, x2 = 0.76 | 1.8
323.15 K, x2 = 0.76 | 2.16
343.15 K, x2 = 0.76 | 2.94
353.15 K, x2 = 0.76 | 3.34

C[NH+](C)C.O=S(=O)([N-]S(=O)(=O)C(F)(F)F)C(F)(F)F + CC#N
Details | electrical conductivity [S/m]
265.55 K, x2 = 0.86 | 4.31
273.15 K, x2 = 0.86 | 4.81
283.15 K, x2 = 0.86 | 5.49
293.15 K, x2 = 0.86 | 6.17
298.15 K, x1 = 0.0001 | 0.022
298.15 K, x1 = 0.0004 | 0.273
298.15 K, x1 = 0.0008 | 0.438
298.15 K, x1 = 0.0021 | 0.755
298.15 K, x1 = 0.0083 | 1.81
298.15 K, x2 = 0.5587 | 3.69
298.15 K, x2 = 0.6 | 4.08
298.15 K, x2 = 0.72 | 5.54
298.15 K, x2 = 0.78 | 6.28
298.15 K, x2 = 0.84 | 6.76
298.15 K, x2 = 0.8901 | 6.73
298.15 K, x2 = 0.938 | 5.86
298.15 K, x2 = 0.9677 | 4.21
313.15 K, x2 = 0.86 | 7.54
323.15 K, x2 = 0.86 | 8.22
333.15 K, x2 = 0.86 | 8.88
343.15 K, x2 = 0.86 | 9.57
353.15 K, x2 = 0.86 | 10.2

C[S+](C)C.O=S(=O)([N-]S(=O)(=O)C(F)(F)F)C(F)(F)F + CC#N
Details | electrical conductivity [S/m]
283.15 K, x2 = 0.87 | 4.66
293.45 K, x2 = 0.87 | 5.28
298.15 K, x1 = 0.0001 | 0.043
298.15 K, x1 = 0.0002 | 0.103
298.15 K, x1 = 0.0003 | 0.148
298.15 K, x1 = 0.0033 | 0.839
298.15 K, x1 = 0.0129 | 2.17
298.15 K, x2 = 0.4883 | 2
298.15 K, x2 = 0.56 | 2.74
298.15 K, x2 = 0.64 | 3.56
298.15 K, x2 = 0.72 | 4.44
298.15 K, x2 = 0.8 | 5.35
298.15 K, x2 = 0.86 | 5.74
298.15 K, x2 = 0.9497 | 4.59
303.25 K, x2 = 0.87 | 5.88
313.15 K, x2 = 0.87 | 6.45
333.15 K, x2 = 0.87 | 7.48
343.15 K, x2 = 0.87 | 8.05
353.15 K, x2 = 0.87 | 8.67

O=C1CCCO1 + C[NH+](C)C.O=S(=O)([N-]S(=O)(=O)C(F)(F)F)C(F)(F)F
x1 = 1
Details | viscosity [mPa·s]
298.15 K | 1.74
303.15 K | 1.61
313.15 K | 1.39
323.15 K | 1.22
343.15 K | 0.96

C[NH+](C)C.O=S(=O)([N-]S(=O)(=O)C(F)(F)F)C(F)(F)F + O=C1CCCO1
Details | electrical conductivity [S/m] | viscosity [mPa·s]
263.15 K, x2 = 0.74 | 0.948 | –
273.15 K, x2 = 0.74 | 1.19 | –
283.15 K, x2 = 0.74 | 1.61 | –
293.15 K, x2 = 0.74 | 2.01 | –
298.15 K, x1 = 0.0001 | 0.005 | –
298.15 K, x1 = 0.0003 | 0.027 | –
298.15 K, x1 = 0.0046 | 0.214 | –
298.15 K, x1 = 0.0188 | 0.613 | –
298.15 K, x2 = 0.5778 | 2.09 | –
298.15 K, x2 = 0.5976 | – | 6.89
298.15 K, x2 = 0.639 | 2.26 | –
298.15 K, x2 = 0.672 | – | 5.66
298.15 K, x2 = 0.6802 | 2.35 | –
298.15 K, x2 = 0.7426 | 2.44 | –
298.15 K, x2 = 0.7428 | – | 4.51
298.15 K, x2 = 0.8047 | 2.36 | –
298.15 K, x2 = 0.8088 | – | 3.5
298.15 K, x2 = 0.8692 | 2.06 | –
298.15 K, x2 = 0.8803 | – | 2.64
298.15 K, x2 = 0.9328 | 1.44 | –
303.15 K, x2 = 0.5976 | – | 5.87
303.15 K, x2 = 0.672 | – | 4.85
303.15 K, x2 = 0.74 | 2.49 | –
303.15 K, x2 = 0.7428 | – | 3.91
313.15 K, x2 = 0.5976 | – | 4.35
313.15 K, x2 = 0.74 | 2.97 | –
313.15 K, x2 = 0.7428 | – | 3.01
313.15 K, x2 = 0.8088 | – | 2.35
323.15 K, x2 = 0.5976 | – | 3.39
323.15 K, x2 = 0.672 | – | 2.84
323.15 K, x2 = 0.74 | 3.47 | –
323.15 K, x2 = 0.7428 | – | 2.29
323.15 K, x2 = 0.8088 | – | 1.91
323.15 K, x2 = 0.8803 | – | 1.49
333.15 K, x2 = 0.5976 | – | 2.74
333.15 K, x2 = 0.672 | – | 2.34
333.15 K, x2 = 0.8088 | – | 1.48
333.15 K, x2 = 0.8803 | – | 1.2
335.15 K, x2 = 0.74 | 4.11 | –
343.15 K, x2 = 0.5976 | – | 2.22
343.15 K, x2 = 0.672 | – | 1.9
343.15 K, x2 = 0.7428 | – | 1.45
343.15 K, x2 = 0.8088 | – | 1.17
343.45 K, x2 = 0.74 | 4.56 | –
353.15 K, x2 = 0.74 | 5.09 | –

C[S+](C)C.O=S(=O)([N-]S(=O)(=O)C(F)(F)F)C(F)(F)F + O=C1CCCO1
Details | electrical conductivity [S/m]
264.75 K, x2 = 0.8 | 0.887
273.15 K, x2 = 0.8 | 1.11
283.85 K, x2 = 0.8 | 1.43
293.15 K, x2 = 0.8 | 1.75
298.15 K, x1 = 0.0001 | 0.011
298.15 K, x1 = 0.0002 | 0.015
298.15 K, x1 = 0.0003 | 0.025
298.15 K, x1 = 0.0005 | 0.038
298.15 K, x1 = 0.0008 | 0.052
298.15 K, x1 = 0.0047 | 0.226
298.15 K, x1 = 0.0187 | 0.583
298.15 K, x2 = 0.5398 | 1.35
298.15 K, x2 = 0.5798 | 1.49
298.15 K, x2 = 0.66 | 1.74
298.15 K, x2 = 0.72 | 1.9
298.15 K, x2 = 0.8 | 2.01
298.15 K, x2 = 0.8695 | 1.89
303.15 K, x2 = 0.8 | 2.11
313.15 K, x2 = 0.8 | 2.5
323.15 K, x2 = 0.8 | 2.9
333.15 K, x2 = 0.8 | 3.32
343.15 K, x2 = 0.8 | 3.74
353.15 K, x2 = 0.8 | 4.17
